Where two headings read alike, the source gives them in different places.

In test [1] the test system is HaCaT (human keratinocyte cell line). The test can be described thus: Cytotoxicity MTT assay, HaCaT. The format is cell-based. The method, then: (§1) This test is based on the reduction of 3-(4,5-dimethyl-2-thiazolyl)-2,5-diphenyl-2-tetrazole bromide by viable cells, with formation of violet insoluble formazan crystals. Five cell lines were used in order to evaluate the cytotoxic effect of the compounds as a whole.
(§2) The cytotoxicity of compounds 4, 16, 28 and copper oxychloride was determined by MTT assay. The cell lines used were HaCaT (human keratinocyte cell line—CLS 300493), Huh-7.5 (human hepatoma cell line—ATCC® PTA-8561), MRC-5 (human lung fibroblast cell line—ATCC CCL-171), VERO (monkey kidney epithelial cell line—ATCC® CCL81) and ACHN (human renal adenocarcinoma cell line—ATCC® CRL1611). The cells were cultured in appropriate medium recommended by the American Type Culture Collection.
(§3) The assay was performed with the concentration of 10^4 cells for both cell lines, distributed in 96-well plates and incubated at 37 °C in a 5% CO2 controlled atmosphere oven for 24 h. After the incubation period, the cells were treated with the compounds with a range of 1.56–200 μmol L^−1 and incubated for 24 h. The supernatant was removed, then 100 μL of 3-(4,5-dimethyl-2-thiazolyl)-2,5-diphenyl-2H-tetrazolium (MTT) salt at 1 mg mL^−1 diluted in DMEM medium (Gibco Life Technologies, Gaithersburg, MD, USA) was added and incubated for 30 min. Subsequently, the MTT was removed, then 100 μL of DMSO under agitation for 5 min at 60 rpm was added. The plates were read at 570 nm in a FLUOstar Omega/BMG LABTECH plate reader, Offenburg, BW, DE. We carried out the experiments in triplicate and three independent events for statistical analysis (GraphPad Software, San Diego, CA, USA). The MTT assay is based on the tetrazolium salt (yellow-colored) reduction to formazan (purple-colored) by metabolically active cells.
(In general: Formazan colour is commonly taken as a measure of viable cells.)

The subject of test [2] is Huh-7.5 (human hepatoma cell line). The test can be described thus: Cytotoxicity MTT assay, Huh-7.5. In kind it is cell-based. The method, then:
as §1, §2, §3

Test [3] deals with X. citri subsp. citri strain 306 (IBSBF 1594). The test can be described thus: MBC, REMA plates replicated to Petri dishes. In kind it is cell-based, Xanthomonas citri subsp. citri. The note with it: Xanthomonas citri; Petri dishes from REMA plates, 29 °C, 24 to 48 h; read-out: MBC. The method, then: The minimal bactericidal concentration (MBC) was determined by observing the bacterial growth in Petri dishes transferred from the REMA plates.
The antibacterial activity of alkyl dihydroxybenzoates and the determination of minimum inhibition concentration (MIC) were performed by the fluorimetric method Resazurin Microtiter Assay (REMA) with some modifications. An overnight culture of X. citri subsp. citri strain 306 (IBSBF 1594) was grown in 20 mL in Nitrogen Yeast Glycerol (NYG) at 29 °C in constant agitation of 180–200 rpm. After 12 h, the Xcc inoculum was dispersed in NYG medium and distributed into a 96 well microtiter plate to a final volume of 100 μL per well (10^5 CFU per well). Stock solutions of tested compounds at 10 mg mL^−1 were prepared in dimethyl sulfoxide (DMSO) and dispersed in NYG medium to obtain 1% DMSO and the final compound concentration range of 0.78–100 μg mL^−1. The negative control was constituted of 100 μL culture medium. In addition, the copper oxychloride was tested as a comparison to alkyl dihydroxybenzoates and kanamycin (20 μg mL^−1), which was used as a control antibiotic. The plate was subsequently incubated at 29 °C for 12 h, and 15 μg mL^−1 freshly prepared resazurin solution in water was added to each well, and the plate was incubated for 2 h. The fluorescence was determined on a Synergy H1 (BioTek, Winooski, VT, USA) microplate reader using the excitation and emission filters at wavelengths of 530 and 590 nm respectively. After the REMA assay, the minimum bactericidal concentration (CBM) assay was performed using a 96-pin stainless steel plate replicator, accurately transferring the wells from the REMA plate to Petri dishes Petri dishes were incubated in oven B.O.D. at 29 °C for 24 to 48 h. The experiments were performed in triplicate.

The test system of test [4] is Xanthomonas citri subsp. citri. The test can be described thus: Growth curve of Xcc (OD 600 nm). In kind it is cell-based. The note with it: MIC and ½ MIC, 72 h. The procedure:
According to the growth curves of the positive control (PC) and vehicle control (DMSO), it was observed that Xcc reaches the maximum growth phase in a period of 15 h. […] The early growth inhibition (lag phase), which happens in the first hours of contact (period of the first cellular divisions) can be a dynamic process. […] This can be explained because the compounds have bacteriostatic action; that is, as the time passes, the cells become able to recover and restart doubling. Another important finding is that the lag phase consists in the cell adaptation to the new medium conditions and the bacterial population is smaller in relation to the exponential phase facilitates the action of the compounds in the first hours (Figure 1).
An isolated colony of Xanthomonas citri subsp. citri was inoculated in NYG medium for 12 h at 29 °C. After this, the optical density (OD 600 nm) was measured and adjusted to ~0.1. […] Optical density reading was measured on a Synergy H1-BioTek plate reader every 30 min for 72 h. The growth curves were plotted with GraphPad Prism software. At the same time, the degradation assay was performed, solubilizing the compounds in DMSO, which were later incorporated in NYG medium. Later, we scanned the compounds to measure the absorbance values from 210 to 700 nm, and the maximum lambda value of each compound was selected after scanning. After that, punctual readings were carried out every 30 min for 72 h.

Test [5] has as its system X. citri subsp. citri strain 306 (IBSBF 1594). The test can be described thus: MIC by Resazurin Microtiter Assay (REMA). The format is cell-based, Xanthomonas citri subsp. citri. Particulars: Xanthomonas citri, 12 h, REMA, NYG medium, 29 °C. The gist of the method:
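X. citri 306 at 10^5 CFU per well in NYG medium was exposed to compounds at 0.78–100 μg mL^−1 (1% DMSO) for 12 h at 29 °C, then resazurin was added for 2 h. MIC was read by fluorescence (ex 530/em 590 nm); bactericidal concentration was found by replating for 24–48 h. Done in triplicate.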

Where [6] appears, read: Homo sapiens, HaCaT, 24 h, read-out: IC50 HaCaT, MTT, 24 h treatment.
Setting [7] is: MTT, 24 h treatment, read-out: IC50 HaCaT.
Setting [8] is: Homo sapiens, Huh7.5, 24 h, read-out: IC50 Huh-7,5, MTT, 24 h treatment.
Setting [9] is: MTT, 24 h treatment, read-out: IC50 Huh-7,5.

`CCCCCCCOC(=O)c1ccc(O)cc1O` [Compound 4]: the IC50 in test [1] (setting [6]) was roughly 70 µM; in test [1] (setting [7]), 64.9 ± 8.91 µM; in test [2] (setting [8]), roughly 70 µM; in test [2] (setting [9]), 70.6 ± 5.52 µM. Also, the minimum bactericidal concentration (MBC) in test [3] is 25 µg/mL. The “effect on Xcc growth curve” value in test [4] is “delay in the exponential phase”. Moreover, in test [5] (read-out: MIC in μM), the MIC was 52 µM.
As for `CCCCCCCOC(=O)c1cc(O)ccc1O` [Compound 16], the IC50 in test [1] (setting [6]) is roughly 70 µM; in test [1] (setting [7]), 69.8 ± 4.87 µM; in test [2] (Homo sapiens, Huh7.5, 24 h, MTT, 24 h treatment, read-out: IC50 Huh-7,5), 20.6 ± 0.23 µM. The MBC in test [3] turned out to be 25 µg/mL. Moreover, the “effect on Xcc growth curve” value in test [4] was “delay in the exponential phase”. For the same molecule, the minimum inhibitory concentration (MIC) in test [5] (read-out: MIC in μM) worked out at 80 µM.
For `CCCCCCCOC(=O)c1ccc(O)c(O)c1` [Compound 28], the 50% inhibitory concentration (IC50) was roughly 70 µM in test [1] (setting [6]), 74 ± 11.7 µM in test [1] (setting [7]), roughly 70 µM in test [2] (setting [8]) and 64.8 ± 14.9 µM in test [2] (setting [9]). Also, the MBC in test [3] is 50 µg/mL. The “effect on Xcc growth curve” value in test [4] is recorded as “delay in the exponential phase”. Further, the figures for the MIC in test [5] (read-out: MIC) and in test [5] (read-out: MIC in μM) were 22.2 µg/mL and 88 µM, respectively.

The term IC50 denotes the point on the concentration scale where inhibition reaches its midpoint. By MBC is commonly meant the smallest concentration meeting the test's criterion for killing. The term MIC denotes the least concentration at which growth counts as inhibited.

Values taken from PMC6213047, “Design of Antibacterial Agents: Alkyl Dihydroxybenzoates against Xanthomonas citri subsp. citri” (International Journal of Molecular Sciences, 2018).
